Laboratory results published in US11753409B2, “Crystalline salts of a B-RAF kinase inhibitor” (Xynomic Pharmaceuticals, Inc., priority 2017, dated 2023).
Entries after “also recorded” stand apart in the source; their conditions may differ.

Experiments:
Assay type in all cases: physicochemical
[1] = Heating to 170° C. and cooling to room temperature; settings: heated to 170° C., cooled to room temperature
Protocol: Further XRPD, TGA, DSC and ^1H NMR analyses were performed after heating succinate Form A to 170° C. and then cooling to room temperature.

[2] = DVS isotherm of Form A (hygroscopicity)
Protocol: DVS was measured via a SMS (Surface Measurement Systems) DVS Intrinsic. The relative humidity at 25° C. was calibrated against the deliquescence point of LiCl, Mg(NO3)2 and KCl.
To investigate the solid form stability as a function of humidity, a DVS isotherm plot of Form A of N-(3-(5-((1-ethylpiperidin-4-yl)(methyl)amino)-3-(pyrimidin-5-yl)-1H-pyrrolo[3,2-b]pyridin-1-yl)-2,4-difluorophenyl)propane-1-sulfonamide monosuccinate salt was collected at 25° C. between 0 and 95% RH.

[3] = Equilibrium solubility of Form A in water
Protocol: Equilibrium solubility of Form A in water was measured at room temperature. The solid was suspended into H2O (˜800 rpm) at rt. After 24 h., the suspension was centrifuged (10000 rpm, 5 min) followed by filtration (0.45 μm PTFE membrane). The supernatant (first few drops were discarded) was analyzed by HPLC and the pH was measured. The residual solid was analyzed by XRPD.

[4] = Solid state stability evaluation
Protocol: Samples of Form A of N-(3-(5-((1-ethylpiperidin-4-yl)(methyl)amino)-3-(pyrimidin-5-yl)-1H-pyrrolo[3,2-b]pyridin-1-yl)-2,4-difluorophenyl)propane-1-sulfonamide monosuccinate salt were stored under at 80° C. for one day, at 25° C. under 60% RH and at 40° C. under 75% RH for one week.

[5] = 25 ° C., 60% RH/1 week (second condition column)
[6] = 25 ° C., 60% RH/1 week (third condition column)

CCCS(=O)(=O)Nc1ccc(F)c(-n2cc(-c3cncnc3)c3nc(N(C)C4CCN(CC)CC4)ccc32)c1F.O=C(O)CCC(=O)O [Monosuccinate Salt, N-(3-(5-((1-Ethylpiperidin-4-yl)(methyl)amino)-3-(pyrimidin-5-yl)-1H-pyrrolo[3,2-b]pyridin-1-yl)-2,4-difluorophenyl)propane-1-sulfonamide monosuccinate salt]
Crystalline form after heating (XRPD) [1]: still succinate Type A | Water uptake (DVS) ([2]; 25° C./80% RH): 0.14% | Hygroscopicity ([2]; DVS at 25° C., 0 to 95% RH, listed as Form A, monosuccinate salt): non-hygroscopic; also recorded: low hygroscopicity | Form change after DVS testing (XRPD) ([2]; listed as Form A, monosuccinate salt): did not result in any form change; also recorded: does not change form | Form change during equilibrium solubility testing (XRPD) ([3]; rt, 24 h, listed as Form A, monosuccinate salt): no form change; also recorded: does not change | solubility thermodynamic at 24 h ([3]; thermodynamic from solid, room temperature, HPLC): 14.3 mg/mL | Form Change [4, 5]: No | Purity (% of Initial) [4, 5]: 100.0 % of Initial | Form Change [4, 6]: No | Purity (% of Initial) [4, 6]: 100.1 % of Initial | Form Change ([4]; 80% C/1 day): No | Purity (% of Initial) ([4]; 80% C/1 day): 99.9 % of Initial | Solid state stability, form change or HPLC purity decrease ([4]; any of the storage conditions): No form change or HPLC purity decrease were observed
